ChEMBL document CHEMBL1201862, “PubChem BioAssay data set” (2004)
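Growth conditions: 96-well plates. Treatment: test compound, 48 hours, 5 concentrations. Analysis: linear interpolation between bracketing concentrations; unreached endpoints set to highest concentration. GI50 is the concentration that inhibits growth by half.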 Activity calls are given as the source filed them. Rule as the data show it: active = GI50 up to about 1.1 µM and inactive = higher.

Key:
Experiment in all cases: growth of human tumour cells (NCI), 48 h
OVCAR-5 = test system: OVCAR-5
UACC-257 = test system: UACC-257
HL-60 = test system: HL-60
CAKI-1 = test system: CAKI-1
TK-10 = test system: TK-10
SK-OV-3 = test system: SK-OV-3
SNB-78 = test system: SNB-78
IGROV-1 = test system: IGROV-1
SNB-75 = test system: SNB-75
K562 = test system: K562
SK-MEL-5 = test system: SK-MEL-5
HT-29 = test system: HT-29
MDA-MB-435 = test system: MDA-MB-435
A549 = test system: A549
SR = test system: SR
M14 = test system: M14
HOP-62 = test system: HOP-62
HCT-15 = test system: HCT-15
SF-539 = test system: SF-539
OVCAR-8 = test system: OVCAR-8

CCC(=O)OCOc1ccc(/C=C2\CCC(CN(C)C)C2=O)cc1 (stereo not given)
GI50 (OVCAR-5): 16.8 µM (inactive) | GI50 (UACC-257): 3.39 µM (inactive) | GI50 (HL-60): 1.36 µM (inactive) | GI50 (CAKI-1): 4.67 µM (inactive) | GI50 (TK-10): 9.12 µM (inactive) | GI50 (SK-OV-3): 15.7 µM (inactive) | GI50 (SNB-78): 9.68 µM (inactive) | GI50 (IGROV-1): 6.44 µM (inactive) | GI50 (SNB-75): 12.8 µM (inactive) | GI50 (K562): 1.85 µM (inactive) | GI50 (SK-MEL-5): 11.7 µM (inactive) | GI50 (HT-29): 6.31 µM (inactive) | GI50 (MDA-MB-435): 3.34 µM (inactive) | GI50 (A549): 18.3 µM (inactive) | GI50 (SR): 2.15 µM (inactive) | GI50 (M14): 3.42 µM (inactive) | GI50 (HOP-62): 15.2 µM (inactive) | GI50 (HCT-15): 3.13 µM | GI50 (SF-539): 8.41 µM (inactive) | GI50 (OVCAR-8): 4.19 µM (inactive)
